We go through two compounds from patent US20070054943A1, “Therapeutic agent for keratoconjunctival disorder” (SANTEN PHARMACEUTICAL CO., LTD., priority 2004, published 2007).

This test relates to corneal disorder models. The test is described as follows: Test for therapeutic effect on corneal damage (corneal disorder models, exorbital lacrimal gland removal, fluorescein staining score). In kind it is in vivo, male SD rats. Particulars: for Improvement ratio (%): {(control)-(compound)}/{(control)-(normal eye)}x100; for Mean value of total scores: fluorescein staining score (0-3 each for upper, middle, lower cornea), mean of 8 cases, normal eye 2.9, control 6.1; for effect on corneal damage (in words): rat corneal disorder models, instillation of rosiglitazone 0.02% or pioglitazone hydrochloride 0.01%, 6 times a day for 14 days. The procedure:
Test For Therapeutic Effect On Corneal Damage
Using male SD rats, in accordance with the method of Fujihara et al. (Invest. Ophthalmol. Vis. Sci. 42 (1) 96-100 (2001)), corneal disorder models were produced. After the production of the corneal disorder models, the improvement ratio of a corneal damage was evaluated by a method (Journal of the eye 21 (1) : 87-90 (2004)) modified from the method of Miyata et al. (Japanese Review of Clinical Ophthalmology 48 (2) : 183-188 (1994)).
A male SD rat was systemically anesthetized by an administration of Nembutal. Subsequently the exorbital lacrimal gland was removed and a corneal damage was induced over a period of 2 months.
Then, the present compound (rosiglitazone or pioglitazone hydrochloride) was administered as follows.
A physiological saline solution of rosiglitazone (0.02%) was instilled into both eyes 6 times a day for 14 days (one group consisting of 8 animals).
A physiological saline solution of pioglitazone hydrochloride (0.01%) was instilled into both eyes 6 times a day for 14 days (one group consisting of 8 animals).
In a control group, physiological saline was instilled into both eyes 6 times a day for 14 days (one group consisting of 8 animals).
Fourteen days after the start of instillation, the damaged parts of the cornea were stained with fluorescein. For each of the upper, middle and lower parts of the cornea, the degree of fluorescein staining was evaluated by scoring according to the criteria shown below and the improvement ratio of corneal damage was calculated from the mean value of the total scores for each of the above-mentioned parts.
• 0: No punctate staining • 1: Scattered staining (punctate staining being separated) • 2: Moderate staining (a part of punctate staining being adjacent) • 3: Heavy staining (punctate staining being barely separated) (Results)
By taking the mean value of the total scores for the control group (physiological saline) as a standard (improvement ratio: 0%) and according to the calculation formula shown below, the improvement ratios for rosiglitazone (0.02%) instillation group and pioglitazone (0.01%) instillation group were calculated, which are shown in Table 1. The mean value of the scores is a mean of those of 8 cases, respectively. Improvement ratio(%)={(control)−(the present compound)}/damage degree×100
Damage degree=(control)−(normal eye)

[1] abbreviates: 0.01% (pioglitazone hydrochloride) in physiological saline instilled into both eyes 6 times a day for 14 days.
Setting [2] is: 0.02% in physiological saline instilled into both eyes 6 times a day for 14 days.

SMILES strings stand for the structures. Entries after “also recorded” stand apart in the source; their conditions may differ.

Regarding `CCc1ccc(CCOc2ccc(CC3SC(=O)NC3=O)cc2)nc1` (stereo not shown) [Pioglitazone, 5-[[4-[2-(5-ethyl-2-pyridinyl)ethoxy]phenyl]methyl]-2,4-thiazolidinedione], the “Improvement ratio (%)” value under setting [1] is on record as 62.5%. For the same compound, under setting [1], the “Mean value of total scores” value stood at 4.1. For the same compound, the “effect on corneal damage (in words)” value by setting is: (listed as pioglitazone) “significantly improve a corneal damage”; (listed as pioglitazone hydrochloride) “excellent improving effect”.
As for `CN(CCOc1ccc(CC2SC(=O)NC2=O)cc1)c1ccccn1` (stereo not shown) [Rosiglitazone, 5-[p-[2-(methyl-2-pyridylamino)ethoxy]benzyl]-2,4-thiazolidinedione], the “effect on corneal damage (in words)” value was “excellent improving effect; also recorded: significantly improve a corneal damage”. For the same compound, under setting [2], the “Improvement ratio (%)” value was 68.7% and the “Mean value of total scores” value was 3.9.
